Experimental data taken from patent publication US20070258972A1, “Combination of a Histone Deacetylase Inhibitor with a Death Receptor Ligand” (priority 2003, published 2007).

Key:
[1] = system: SKW 6.4 and Jurkat leukemia cells; assay: Multi-probe RNase protection assay of mRNA levels; format: cell-based, human
Description: A RiboQuant Multi-Probe RNase Protection Assay System was used according to the manufacturer's instructions (BD/PharMingen, San Diego, Calif.). A probe set, hAPO-3d (FLICE, FAS, DR5, DR4 and TRAIL) was used for T7 RNA-polymerase directed synthesis of [α-32P] UTP-labeled antisense RNA probes. The probe set contains the DNA templates, including glyceraldehyde-3-phosphate dehydrogenase (GAPDH) used as internal control. The probes (1×10^6 cpm/reaction) are hybridized with 20 μg of RNA isolated from the SKW 6.4 and Jurkat leukemia cells, following treatment with 100 nM LAQ824 at different time points using the RNeasy Mini kit (Qiagen, Valencia, Calif.). After overnight hybridization, samples are digested with RNase to remove single-stranded (non-hybridized) RNA. The remaining probes are resolved on 5% de-naturing polyacrylamide gel and analyzed by autoradiography.

[2] = system: DR5 promoter associated with acetylated histones H3 and H4; assay: ChIP assay, DR5 promoter; format: cell-based, human; details: 8 hours, Jurkat cells
Description: ChIP analysis was performed by a slight modification of a previously described method. Cells are incubated overnight at a density of 0.25×10^8 cells/ ml at 37° C. with 5% CO2. […] Formaldehyde was then added to the cells to a final concentration of 1%, and the cells are gently shaken at room temperature for 10 minutes. Following this, the cells are pelleted, suspended in 1 mL of ice-cold PBS containing protease inhibitors (Complete, Boehringer Mannheim). Cells are again pelleted, re-suspended in 0.5 mL of SDS lysis buffer (1% SDS/1.0 mM EDTA/50 mM Tris.HCl, pH 8.1) and incubated on ice for 20 minutes. Lysates are sonicated with 15-second bursts. Debris was removed from samples by centrifugation for 20 minutes at 15,000×g at 4° C. An aliquot of the chromatin preparation (100 μL) was set aside and designated as Input Fraction. […] Immunoprecipitated DNA (both immunoprecipitation samples and Input) was recovered by phenol/chloroform extraction and ethanol precipitation and analyzed by PCR. […] The optimal reaction conditions for PCR are determined for each primer pair. […] The ratio between the immunoprecipitated DNA and Input DNA was calculated for each treatment and primer set. The fold increases after treatment with LAQ824 was calculated from the indicated ratio.

c-FLIPL mRNA = assay: RT-PCR assay for c-FLIP mRNA levels; format: cell-based; details: 8 hours
Description: Total RNA was isolated from cells utilizing a TRIZOL LS reagent (Invitrogen Carlsbad, Calif.). RT-PCR analysis was performed, as previously described. The RNA (1.0 μg) was reverse-transcribed into cDNA by using SuperScript II RT (Invitrogen Carlsbad, Calif.) according to the manufacturer's protocol. For the c-FLIP PCR, the primer sequences are as follows, forward primer: 5′-GCCCGAGCACCGAGACTACG-3′; and reverse primer: 5′-AGG GAC GGD GAG CTG TGA GAC TG-3′. β-actin forward primer: 5′-CTA CM TGA GCT GCG TGT GG-3′; and reverse primer: MG GM GGC TGG MG AGT GC. The PCR reaction containing 0.2 mM concentration of dATP, dCTP, dGTP, dTTP and 200 nM concentration of each c-FLIP primers and 50 nM of each β-actin primers, 1.5 mM of MgCl2, and 10×PCR buffer containing Tris-HCL (pH 8.0), 500 mM KCL and 1 U of Tag polymerase (Invitrogen Carlsbad, Calif.). The reaction is performed at 95° C. for 5 minutes, and is followed by 30 cycles of de-naturating at 95° C. for 45 seconds, annealing at 52° C. for 45 seconds and the extension at 72° C. for one minute. The PCR products are separated on a 2% agarose/eithidium bromide gel. The size of the amplified products was 395 bases pairs for the c-FLIP and 527 base pairs for β-actin product, respectively.

[3] = 8 hours or 16 hours, densitometry, GAPDH loading control

Q: Which results are given for `O=C(/C=C/c1ccc(CN(CCO)CCc2c[nH]c3ccccc23)cc1)NO` [LAQ824, N-hydroxy-3-[4-[[(2-hydroxyethyl)[2-(1H-indol-3-yl)ethyl]-amino]methyl]phenyl]-2E-2-propenamide]?
A: mRNA levels of Apo-2L/TRAIL and caspase-8 (FLICE) [1]: only minimally affected; mRNA expression of DR5, increase [1, 3]: 2.4 fold; mRNA expression of FAS, increase [1, 3]: 1.5 fold; DR4 mRNA levels, increase ([1]; only in SKW 6.4 cells): 2.2 fold; increase of DR5 promoter associated with acetylated histones H3 and H4 ([2]; first of 'respectively' (100 nM / H3)): 3.3 fold; increase of DR5 promoter associated with acetylated histones H3 and H4 ([2]; second of 'respectively' (200 nM / H4)): 5.7 fold; inhibition of the mRNA level of c-FLIPL (c-FLIPL mRNA): 75%
